From US10667518B2, “Pesticidally active heterocyclic derivatives with sulphur containing substituents” (SYNGENTA PARTICIPATIONS AG, priority 2016, dated 2020)

Columns and labels:
Type in all cases: in vivo
[1] = test system: Diabrotica balteata (Corn Root Worm); experiment: Diabrotica balteata (corn root worm) test on sprayed maize sprouts; details: 96 h, application rate of 200 ppm, L2 larvae, 4 days after infestation, in comparison to untreated samples, read-out: effect in at least one of the two categories (mortality or growth inhibition)
Procedure: Example B2: Diabrotica balteata (Corn Root Worm)
Maize sprouts placed onto an agar layer in 24-well microtiter plates were treated with aqueous test solutions prepared from 10′000 ppm DMSO stock solutions by spraying. After drying, the plates were infested with L2 larvae (6 to 10 per well). The samples were assessed for mortality and growth inhibition in comparison to untreated samples 4 days after infestation.
(§1) The following compounds gave an effect of at least 80% in at least one of the two categories (mortality or growth inhibition) at an application rate of 200 ppm: P1, P2, P3, P4.

[2] = test system: Spodoptera littoralis (Egyptian Cotton Leaf Worm); experiment: Spodoptera littoralis (Egyptian cotton leaf worm) test on sprayed cotton leaf discs; details: foliar, 72 h, application rate of 200 ppm, L1 larvae, 3 days after infestation, in comparison to untreated samples, read-out: control (mortality, anti-feeding effect, or growth inhibition)
Procedure: Example B8: Spodoptera littoralis (Egyptian Cotton Leaf Worm)
Cotton leaf discs were placed onto agar in 24-well microtiter plates and sprayed with aqueous test solutions prepared from 10′000 ppm DMSO stock solutions. After drying the leaf discs were infested with five L1 larvae. The samples were assessed for mortality, anti-feeding effect, and growth inhibition in comparison to untreated samples 3 days after infestation. Control of Spodoptera littoralis by a test sample is given when at least one of the categories mortality, anti-feedant effect, and growth inhibition is higher than the untreated sample.

[3] = test system: Plutella xylostella (Diamond Back Moth); experiment: Plutella xylostella (diamond back moth) artificial diet test; details: 120 h, application rate of 200 ppm, L2 larvae, artificial diet treated by pipetting, 5 days after infestation, in comparison to untreated samples, read-out: effect in at least one of the two categories (mortality or growth inhibition)
Procedure: Example B7: Plutella xylostella (Diamond Back Moth)
24-well microtiter plates with artificial diet were treated with aqueous test solutions prepared from 10′000 ppm DMSO stock solutions by pipetting. After drying, the plates were infested with L2 larvae (10 to 15 per well). The samples were assessed for mortality and growth inhibition in comparison to untreated samples 5 days after infestation.
as §1

CCS(=O)(=O)c1cc(-c2cc(F)cc(F)c2)cnc1-n1cc2ncc(C(F)(F)F)cc2n1 [P1, 2-[5-(3,5-difluorophenyl)-3-ethylsulfonyl-2-pyridyl]-6-(trifluoromethyl)pyrazolo[4,3-b]pyridine]
≥ 80%: percent effect (mortality or growth inhibition) at 200 ppm [1] | percent control (mortality, anti-feedant effect or growth inhibition) at 200 ppm [2] | percent effect (mortality or growth inhibition) at 200 ppm [3]

CCS(=O)(=O)c1cc(-c2cccc(F)c2)cnc1-n1cc2ncc(C(F)(F)F)cc2n1 [P2]
≥ 80%: percent effect (mortality or growth inhibition) at 200 ppm [1] | percent control (mortality, anti-feedant effect or growth inhibition) at 200 ppm [2] | percent effect (mortality or growth inhibition) at 200 ppm [3]

CCS(=O)(=O)c1cc(-c2cc(F)cc(F)c2)cnc1-n1cc2ccc(C(F)(F)F)cc2n1 [P3, 2-[5-(3,5-difluorophenyl)-3-ethylsulfonyl-2-pyridyl]-6-(trifluoromethyl)indazole]
≥ 80%: percent effect (mortality or growth inhibition) at 200 ppm [1] | percent control (mortality, anti-feedant effect or growth inhibition) at 200 ppm [2] | percent effect (mortality or growth inhibition) at 200 ppm [3]

CCS(=O)(=O)c1cc(-c2cccc(F)c2)cnc1-n1cc2ccc(C(F)(F)F)cc2n1 [P4]
≥ 80%: percent effect (mortality or growth inhibition) at 200 ppm [1] | percent control (mortality, anti-feedant effect or growth inhibition) at 200 ppm [2] | percent effect (mortality or growth inhibition) at 200 ppm [3]
